# Reference: patent publication US20260355330A1, “CELL PENETRATING PEPTIDES AND USES THEREOF” (VECTIOPEP OÜ, priority 2022, published 2026)
# Positions of bridges follow the written chain, without caps; N, C: chain ends. Non-standard residues stand in square brackets, D forms with d. Residues, ends and D or L forms follow the SMILES beside them. Chains are numbered I, II in the order given. *: point of attachment. Docosanoyl = CCCCCCCCCCCCCCCCCCCCCC(=O)*; Arachidoyl = CCCCCCCCCCCCCCCCCCCC(=O)*; Stearoyl = CCCCCCCCCCCCCCCCCC(=O)*; Palmitoyl = CCCCCCCCCCCCCCCC(=O)*; Orn = NCCC[C@H](N)C(=O)O; Dab = NCC[C@H](N)C(=O)O
# Columns and labels:
# CHO-K1 cells = assay: Delivery of reporter mRNA with CPPs in cell culture (luciferase luminescence 24 h post-transfection); type: cell-based; conditions: for Average RLU/mg (reporter levels post-transfection of mRNA): firefly luciferase mRNA, 0.1 μg per well, charge ratio 3:1, serum containing media, 24 h, RLU normalised to total protein in lysate; for Efficiency of mRNA transfection/delivery / Delivery of mRNA compared to NF54 / Delivery of mRNA compared to NF55: in words; for Efficiency of mRNA transfection/delivery: FIG. 1 / Table 2, cell culture; for Delivery of mRNA compared to NF54: comparator NF54; for Delivery of mRNA compared to NF55: comparator NF55
# Description: FIG. 1: Delivery of reporter mRNA with CPPs in cell culture—evaluation of reporter levels post-transfection (relative light units normalised to total protein in the cell lysate (RLU/mg)). Naked mRNA treated cells were used as controls and Lipofectamine3000 (LF3000) was used to compare the transfection efficacy with a liposome-based transfection reagent.
# Adherent CHO-K1 cells were grown in Dulbecco's Modified Eagle's Medium (DMEM), which were supplemented with 0.1 mM non-essential amino acids, 1.0 mM sodium pyruvate, 100 U/ml penicillin, and […]. For complete media, 10% (final) fetal bovine serum (FBS) was added. Cells were maintained in a humidified incubator at 37 °C, 5% CO2. Cell viability and confluence was assessed daily and the cell density was reduced regularly. For cell counting, we used the CytoSMART cell counter accompanied by 0.4% trypan blue staining prior measurement. The multi-well plates with cell cultures used for experiments were incubated in a humidified incubator at 37 °C, 5% CO2.
# For in vitro experiments 0.1 μg of nucleic acid (plasmid DNA (pDNA) or mRNA) was used per 96-well plate well. For CPP/NA complex formation, the diluted NA was mixed with CPP in water. Complexes were formed based on the theoretical charge ratio (CR) of positive charges from the peptide in excess to the negative charges from nucleic acid backbone, at charge ratio 3:1 with peptide in excess. Commercial reagent Lipofectamine3000 (LF3000) was used according to the manufacturer's recommendations for the transfection of adherent cells.
# For reporter luminescence (expressed from firefly luciferase encoding mRNA or plasmid pDNA) assessment in adherent cell culture, 10,000 cells per 96-well plate well were seeded in 100 μl of media one day prior to transfection. Shortly before transfection, cell media was replaced with 100 μl of serum containing (10% foetal bovine serum) DMEM media. CPPs and mRNA or pDNA were mixed at a charge ratio 3:1 in ultrapure water and incubated at room temperature before addition to cells in serum containing media. Cells were transfected with 0.1 μg of mLuc per well.
# 24 hours post-transfection, the media was aspirated, cells were washed with 1×PBS, and 30 μl of lysis buffer (0.1% Triton X100 in 1×PBS) was added. Cells were incubated with lysis buffer for 20 min. to lyse the cells. From the lysate, 20 μl was transferred to a black frame white well 96-well plate for luminescence measurement after addition of substrate luciferin (PerkinElmer) in buffer. The luminescence signal was detected with GloMax® 96 microplate luminometer equipped with GloMax® 1.9.2 software (Promega). RLU values were converted to RLU/mg by normalization to total protein in cell lysate, reflecting total number of cells. For protein detection, a Pierce™ BCA Protein Assay Kit was used.
# The present inventors have previously reported CPPs developed from the NickFect (NF) and PepFect (PF) families for plasmid (pDNA), siRNA and miRNA delivery (see, e.g. WO 2020/144317, WO 2010/039088 and WO 2012/113846). With the emergence of mRNA-based therapeutics, it was decided to investigate peptides for their ability to deliver mRNA. It was assumed that CPPs that are efficient for siRNA and miRNA delivery, e.g. histidine containing CPPs (Porosk et. al. (2019)), may be good candidates for the delivery of mRNA. Therefore, CPPs from each main family (NF55-, PF14- and NF70-derived CPPs) were tested for mRNA delivery/transfection. Naked mRNA treated and untreated cells were used as control groups. LF3000 was used to compare the transfection efficacy of liposome-based transfection reagents with the CPPs (FIG. 1).
# spleen of BALB/c mice = assay: In vivo delivery of mRNA with CPPs - reporter levels in the spleen; conditions: for Reporter levels in the spleen (RLU): mRNA, tail vein injection, spleens harvested 16 hours after single injection, whole tissue homogenate; for Efficacy of mRNA delivery into the spleen in vivo / Delivery of mRNA in vivo compared to NF54 and/or NF55: in words; for Efficacy of mRNA delivery into the spleen in vivo: FIG. 5 / Table 5; for Delivery of mRNA in vivo compared to NF54 and/or NF55: comparator NF54 and/or NF55
# Description: FIG. 5: Delivery of mRNA with CPPs in vivo—reporter levels in the spleen. Spleens were harvested post mortem 16 hours post-injection. The reporter levels (RLU) were evaluated from the whole tissue homogenate.
# The transfection complexes (CPP/mRNA) were formed using 10 μg of mRNA mixed with each peptide at indicated charge ratios (CRs) in MQ water in a final volume of 100 μl. CRs were calculated theoretically and account for both the positive charges of the peptide and negative charges of the nucleic acid. The transfection complexes (CPP/mRNA and CPP/pDNA) were formed using 50 μg of mRNA mixed with each peptide at indicated charge ratios (CRs) in MQ water in a final volume of 168 μl. The complexes were incubated for 30 minutes at room temperature and then mixed with equal volume of 10% glucose (resulting in a final solution of 5% glucose in a total volume of 200 μl for 10 μg dose groups and 336 μl for 50 μg dose groups) and immediately injected intravenously via the tail vein.
# The reporter gene (luciferase) expression levels were evaluated from the tissue homogenate post mortem 16-24 h after single injection.
# CPPs and mRNA complexes were injected through the tail vein of BALB/c mice, spleens were harvested 16 hours after the single injection and reporter signal was measured from the whole tissue homogenate (FIG. 5 and Table 5).
Structure (SMILES),Average RLU/mg (reporter levels post-transfection of mRNA) (CHO-K1 cells),Reporter levels in the spleen (RLU) (spleen of BALB/c mice),Efficacy of mRNA delivery into the spleen in vivo (spleen of BALB/c mice),Efficiency of mRNA transfection/delivery (CHO-K1 cells),Delivery of mRNA compared to NF54 (CHO-K1 cells),Delivery of mRNA compared to NF55 (CHO-K1 cells),Delivery of mRNA in vivo compared to NF54 and/or NF55 (spleen of BALB/c mice)
CCCCCCCCCCCCCCCC(=O)N[C@@H](C)C(=O)NCC(=O)N[C@@H](Cc1ccc(O)cc1)C(=O)N[C@@H](CC(C)C)C(=O)N[C@@H](CC(C)C)C(=O)NCC(=O)NCCCC[C@H](N)C(=O)N[C@H](C(=O)N[C@@H](CC(N)=O)C(=O)N[C@@H](CC(C)C)C(=O)N[C@@H](CCCCN)C(=O)N[C@@H](C)C(=O)N[C@@H](CC(C)C)C(=O)N[C@@H](C)C(=O)N[C@@H](C)C(=O)N[C@@H](CC(C)C)C(=O)N[C@@H](C)C(=O)N[C@@H](CCCCN)C(=O)N[C@@H](C)C(=O)N[C@H](C(=O)N[C@@H](CC(C)C)C(N)=O)[C@@H](C)CC)[C@@H](C)CC [NF420] (I: H-KINLKALAALAKAIL-NH2 / II: Palmitoyl-AGYLLG; amide I:1-II:C),548 000 000 RLU/mg,81 271 RLU,–,–,–,–,–
CCCCCCCCCCCCCCCC(=O)N[C@@H](C)C(=O)NCC(=O)N[C@@H](Cc1ccc(O)cc1)C(=O)N[C@@H](CC(C)C)C(=O)N[C@@H](CC(C)C)C(=O)NCC(=O)NCCC[C@H](N)C(=O)N[C@H](C(=O)N[C@@H](CC(N)=O)C(=O)N[C@@H](CC(C)C)C(=O)N[C@@H](CCCCN)C(=O)N[C@@H](C)C(=O)N[C@@H](CC(C)C)C(=O)N[C@@H](C)C(=O)N[C@@H](C)C(=O)N[C@@H](CC(C)C)C(=O)N[C@@H](C)C(=O)N[C@@H](CCCCN)C(=O)N[C@@H](C)C(=O)N[C@H](C(=O)N[C@@H](CC(C)C)C(N)=O)[C@@H](C)CC)[C@@H](C)CC [NF419],491 000 000 RLU/mg,179 114 RLU,delivered mRNA into the spleen in vivo with high efficacy,–,–,–,–
CCCCCCCCCCCCCCCCCCCCCC(=O)N[C@@H](C)C(=O)NCC(=O)N[C@@H](Cc1ccc(O)cc1)C(=O)N[C@@H](CC(C)C)C(=O)N[C@@H](CC(C)C)C(=O)NCC(=O)NCCC[C@H](N)C(=O)N[C@H](C(=O)N[C@@H](CC(N)=O)C(=O)N[C@@H](CC(C)C)C(=O)N[C@@H](CCCCN)C(=O)N[C@@H](C)C(=O)N[C@@H](CC(C)C)C(=O)N[C@@H](C)C(=O)N[C@@H](C)C(=O)N[C@@H](CC(C)C)C(=O)N[C@@H](C)C(=O)N[C@@H](CCCCN)C(=O)N[C@@H](C)C(=O)N[C@H](C(=O)N[C@@H](CC(C)C)C(N)=O)[C@@H](C)CC)[C@@H](C)CC [NF411],2 090 000 000 RLU/mg,161 716 RLU,delivered mRNA into the spleen in vivo with high efficacy,the most efficient,equivalent delivery of mRNA to NF54,good improvement in delivery of mRNA over NF55,–
CCCCCCCCCCCCCCCCCCCC(=O)N[C@@H](C)C(=O)NCC(=O)N[C@@H](Cc1ccc(O)cc1)C(=O)N[C@@H](CC(C)C)C(=O)N[C@@H](CC(C)C)C(=O)NCC(=O)NCC[C@H](N)C(=O)N[C@@H](CC(C)C)C(=O)N[C@@H](CCCCN)C(=O)N[C@@H](C)C(=O)N[C@@H](CC(C)C)C(=O)N[C@@H](C)C(=O)N[C@@H](C)C(=O)N[C@@H](CC(C)C)C(=O)N[C@@H](C)C(=O)N[C@@H](CCCCN)C(=O)N[C@@H](C)C(=O)N[C@H](C(=O)N[C@@H](CC(C)C)C(N)=O)[C@@H](C)CC [NF426] (I: H-[Dab]LKALAALAKAIL-NH2 / II: Arachidoyl-AGYLLG; amide I:1-II:C),1 960 000 000 RLU/mg,259 807 RLU,delivered mRNA into the spleen in vivo with high efficacy,the most efficient,equivalent delivery of cargo such as mRNA to NF54,good improvement in delivery of mRNA over NF55,good improvement in mRNA delivery in vivo over NF55
CCCCCCCCCCCCCCCCCCCCCC(=O)N[C@@H](C)C(=O)NCC(=O)N[C@@H](Cc1ccc(O)cc1)C(=O)N[C@@H](CC(C)C)C(=O)N[C@@H](CC(C)C)C(=O)NCC(=O)NCCCC[C@H](N)C(=O)N[C@H](C(=O)N[C@@H](CC(N)=O)C(=O)N[C@@H](CC(C)C)C(=O)N[C@@H](CCCCN)C(=O)N[C@@H](C)C(=O)N[C@@H](CC(C)C)C(=O)N[C@@H](C)C(=O)N[C@@H](C)C(=O)N[C@@H](CC(C)C)C(=O)N[C@@H](C)C(=O)N[C@@H](CCCCN)C(=O)N[C@@H](C)C(=O)N[C@H](C(=O)N[C@@H](CC(C)C)C(N)=O)[C@@H](C)CC)[C@@H](C)CC [NF413] (I: H-KINLKALAALAKAIL-NH2 / II: Docosanoyl-AGYLLG; amide I:1-II:C),678 000 000 RLU/mg,50 495 RLU,–,–,–,–,–
CCCCCCCCCCCCCCCCCC(=O)N[C@@H](C)C(=O)NCC(=O)N[C@@H](Cc1ccc(O)cc1)C(=O)N[C@@H](CC(C)C)C(=O)N[C@@H](CC(C)C)C(=O)NCC(=O)NCCC[C@H](N)C(=O)N[C@H](C(=O)N[C@@H](CC(N)=O)C(=O)N[C@@H](CC(C)C)C(=O)N[C@@H](CCCCN)C(=O)N[C@@H](C)C(=O)N[C@@H](CC(C)C)C(=O)N[C@@H](C)C(=O)N[C@@H](C)C(=O)N[C@@H](CC(C)C)C(=O)N[C@@H](C)C(=O)N[C@@H](C)C(=O)N[C@@H](CCCCN)C(=O)N[C@H](C(=O)N[C@@H](CC(C)C)C(N)=O)[C@@H](C)CC)[C@@H](C)CC [NF54],2 160 000 000 RLU/mg,225 675 RLU,delivered mRNA into the spleen in vivo with high efficacy,the most efficient,–,significantly improved delivery of mRNA over NF55,good improvement in mRNA delivery in vivo over NF55
CCCCCCCCCCCCCCCCCC(=O)N[C@@H](C)C(=O)NCC(=O)N[C@@H](Cc1ccc(O)cc1)C(=O)N[C@@H](CC(C)C)C(=O)N[C@@H](CC(C)C)C(=O)NCC(=O)NCCC[C@H](N)C(=O)N[C@@H](CC(C)C)C(=O)N[C@@H](CCCCN)C(=O)N[C@@H](C)C(=O)N[C@@H](CC(C)C)C(=O)N[C@@H](C)C(=O)N[C@@H](C)C(=O)N[C@@H](CC(C)C)C(=O)N[C@@H](C)C(=O)N[C@@H](CCCCN)C(=O)N[C@@H](C)C(=O)N[C@H](C(=O)N[C@@H](CC(C)C)C(N)=O)[C@@H](C)CC [NF430] (I: H-[Orn]LKALAALAKAIL-NH2 / II: Stearoyl-AGYLLG; amide I:1-II:C),766 000 000 RLU/mg,405 318 RLU,highest reporter levels after mRNA delivery into the spleen in vivo,–,–,–,–
